Reference: US9352013B2, “Uses of bremelanotide in therapy for female sexual dysfunction” (Palatin Technologies, Inc., priority 2012, dated 2016)

Experiment: Subcutaneous trial in males: vomiting
Assay type: in vivo, human
Conditions: intramuscular ondansetron
Protocol: In a trial in males, 1 of 6 subjects at the 5-mg dose level, 1 of 6 subjects at the 7.5 mg dose level, and 3 of 6 subjects at the 10-mg dose level experienced vomiting that was mild or moderate in intensity and delayed 6 to 15 hours.

For Cc1nccn1CC1CCc2c(c3ccccc3n2C)C1=O (stereo not shown) [ondansetron, reference compound], which “Resolution of bremelanotide-associated vomiting” value is on record?
Its value is “Vomiting could be resolved”.
